Experimental data reported in the supplement of paper PMC10883282.
Structures can show the parent of a compound that is named as a salt. ± gives the standard deviation of the averaged measurements.

Tested on: RD-ES
Experiment: relative viability vs DMSO control (72 h) (fraction); higher = more viable cells
Outline: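 After seeding at densities set for 80–90% confluence in 384-well plates, sarcoma cell lines waited 24 h before 2.5 µl of serially diluted compound was added. Source plates held 10 mM down to 0.0002 mM. Plates were incubated 72 h at 37 °C with 5% CO2, with 0.1% DMSO vehicle and a 5 µM positive control, and relative viability was taken from ATPLite as percent growth averaged over up to triplicate wells, with 1 set as full and 0 as none.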

Structure (SMILES) | relative viability (0.00017 µM) | relative viability (0.00051 µM) | relative viability (0.00152 µM) | relative viability (0.00457 µM) | relative viability (0.01372 µM) | relative viability (0.04115 µM) | relative viability (0.1235 µM) | relative viability (0.3704 µM) | relative viability (1.111 µM) | relative viability (3.333 µM) | relative viability (10 µM) | relative viability (2 pM) | relative viability (5 pM) | relative viability (15 pM) | relative viability (50 pM) | relative viability (0.00014 µM) | relative viability (0.00041 µM) | relative viability (0.0012 µM) | relative viability (0.0037 µM) | relative viability (0.011 µM) | relative viability (200 fM) | relative viability (600 fM)
COc1cccc2c1C(=O)c1c(O)c3c(c(O)c1C2=O)C[C@@](O)(C(=O)CO)C[C@@H]3O[C@H]1C[C@H](N)[C@H](O)[C@H](C)O1 [Doxorubicin Hydrochloride] | 1.01 ± 0.032 | 1.03 ± 0.037 | 1.02 ± 0.014 | 1 ± 0.025 | 0.749 ± 0.0091 | 0.374 ± 0.014 | 0.155 ± 0.011 | 0.036 ± 0.0064 | 0.0178 ± 0.0034 | 0.00453 ± 5.8e-05 | 0.0075 ± 0.00089 | – | – | – | – | – | – | – | – | – | – | –
CO[C@H]1C[C@@H]2CC[C@@H](C)[C@@](O)(O2)C(=O)C(=O)N2CCCC[C@H]2C(=O)O[C@H]([C@H](C)C[C@@H]2CC[C@@H](OP(C)(C)=O)[C@H](OC)C2)CC(=O)[C@H](C)/C=C(\C)[C@@H](O)[C@@H](OC)C(=O)[C@H](C)C[C@H](C)/C=C/C=C/C=C/1C [Ridaforolimus] | 0.988 ± 0.013 | 0.978 ± 0.019 | 0.893 ± 0.039 | 0.804 ± 0.0091 | 0.754 ± 0.019 | 0.71 ± 0.011 | 0.6822 ± 0.0053 | 0.674 ± 0.0087 | 0.693 ± 0.025 | 0.66 ± 0.026 | 0.627 ± 0.021 | – | – | – | – | – | – | – | – | – | – | –
Cc1cc(C)c(/C=C2\C(=O)Nc3ccccc32)[nH]1 [Semaxanib] | 0.962 ± 0.022 | 0.973 ± 0.034 | 0.961 ± 0.052 | 0.994 ± 0.02 | 0.969 ± 0.053 | 0.976 ± 0.013 | 0.93 ± 0.024 | 0.965 ± 0.026 | 0.915 ± 0.064 | 0.871 ± 0.033 | 0.792 ± 0.012 | – | – | – | – | – | – | – | – | – | – | –
CN1CCC(COc2cnc(-c3cccc(Cn4nc(-c5cccc(C#N)c5)ccc4=O)c3)nc2)CC1 [Tepotinib] | 0.997 ± 0.016 | 1.01 ± 0.013 | 1.01 ± 0.014 | 1 ± 0.013 | 0.971 ± 0.024 | 1 ± 0.017 | 0.99 ± 0.043 | 0.991 ± 0.035 | 0.969 ± 0.029 | 0.953 ± 0.017 | 0.887 ± 0.025 | – | – | – | – | – | – | – | – | – | – | –
COc1cc2c(Oc3ccc4[nH]c(C)cc4c3F)ncnc2cc1OCCCN1CCCC1 [Cediranib] | 0.96 ± 0.026 | 0.985 ± 0.038 | 0.95 ± 0.023 | 0.958 ± 0.018 | 0.992 ± 0.023 | 0.961 ± 0.017 | 0.962 ± 0.01 | 0.9773 ± 0.0095 | 0.887 ± 0.013 | 0.971 ± 0.025 | 0.943 ± 0.022 | – | – | – | – | – | – | – | – | – | – | –
C[C@@H](c1ccc2nccn2c1)n1nnc2ncc(-c3cnn(C)c3)nc21 [Volitinib] | 0.975 ± 0.017 | 1.01 ± 0.019 | 0.98 ± 0.043 | 0.998 ± 0.022 | 1 ± 0.018 | 1 ± 0.013 | 1.02 ± 0.017 | 1.03 ± 0.025 | 0.989 ± 0.062 | 0.995 ± 0.064 | 0.972 ± 0.081 | – | – | – | – | – | – | – | – | – | – | –
CC1(C)CNc2cc(NC(=O)c3cccnc3NCc3ccncc3)ccc21 [Motesanib] | 0.969 ± 0.051 | 0.962 ± 0.048 | 0.957 ± 0.05 | 1.01 ± 0.038 | 0.964 ± 0.053 | 0.994 ± 0.033 | 0.989 ± 0.035 | 0.991 ± 0.04 | 0.989 ± 0.038 | 0.974 ± 0.062 | 0.846 ± 0.015 | – | – | – | – | – | – | – | – | – | – | –
N#CC[C@H](C1CCCC1)n1cc(-c2ncnc3[nH]ccc23)cn1 [Ruxolitinib] | 0.938 ± 0.025 | 0.967 ± 0.014 | 0.95 ± 0.031 | 0.949 ± 0.024 | 0.932 ± 0.025 | 0.939 ± 0.05 | 0.933 ± 0.057 | 0.946 ± 0.029 | 0.939 ± 0.028 | 0.941 ± 0.028 | 0.954 ± 0.065 | – | – | – | – | – | – | – | – | – | – | –
Cc1nc(NC(=O)N2CCC[C@H]2C(N)=O)sc1-c1ccnc(C(C)(C)C(F)(F)F)c1 [Alpelisib] | 0.955 ± 0.069 | 0.949 ± 0.05 | 0.95 ± 0.05 | 0.944 ± 0.046 | 0.894 ± 0.017 | 0.852 ± 0.028 | 0.733 ± 0.025 | 0.641 ± 0.029 | 0.559 ± 0.0059 | 0.485 ± 0.025 | 0.375 ± 0.009 | – | – | – | – | – | – | – | – | – | – | –
CN1CCN(c2ccc3nc(-c4c(N)c5c(F)cccc5[nH]c4=O)[nH]c3c2)CC1 [Dovitinib] | 0.955 ± 0.025 | 0.944 ± 0.067 | 0.949 ± 0.024 | 0.943 ± 0.026 | 0.937 ± 0.014 | 0.893 ± 0.021 | 0.899 ± 0.045 | 0.829 ± 0.027 | 0.575 ± 0.013 | 0.24 ± 0.019 | 0.0296 ± 0.0072 | – | – | – | – | – | – | – | – | – | – | –
COc1cc2c(cc1O)CCN[C@]21CS[C@@H]2c3c(OC(C)=O)c(C)c4c(c3[C@H](COC1=O)N1[C@@H]2[C@H]2c3c(cc(C)c(OC)c3O)C[C@@H]([C@@H]1O)N2C)OCO4 [Trabectedin] | – | – | – | – | – | – | – | – | – | – | – | 0.979 ± 0.032 | 0.954 ± 0.052 | 0.833 ± 0.06 | 0.581 ± 0.008 | 0.0757 ± 0.0065 | 0.0099 ± 0.002 | 0.00377 ± 0.00023 | 0.0027 ± 0.00085 | 0.00663 ± 0.00032 | 0.9532 ± 0.0081 | 0.985 ± 0.056
C=CC(=O)Nc1cccc(Oc2nc(Nc3ccc(N4CCN(C)CC4)cc3)nc3ccsc23)c1 [Olmutinib] | 0.914 ± 0.052 | 0.949 ± 0.025 | 0.953 ± 0.022 | 0.953 ± 0.0047 | 0.9443 ± 0.0083 | 0.978 ± 0.015 | 0.979 ± 0.02 | 0.977 ± 0.012 | 0.9749 ± 0.0091 | 0.931 ± 0.068 | 0.774 ± 0.074 | – | – | – | – | – | – | – | – | – | – | –
CC(C)NC(=O)C1CCC(n2c(NC(=O)c3ccc(F)cc3)nc3ccc(CN4CCC(C(C)(C)O)CC4)cc32)CC1 (centres undefined) [Belizatinib] | 1.01 ± 0.025 | 1.02 ± 0.021 | 0.997 ± 0.021 | 1.02 ± 0.013 | 1.03 ± 0.021 | 0.995 ± 0.021 | 0.907 ± 0.01 | 0.648 ± 0.02 | 0.455 ± 0.014 | 0.395 ± 0.016 | 0.261 ± 0.009 | – | – | – | – | – | – | – | – | – | – | –
CCN1CCN(Cc2ccc(Nc3ncc(F)c(-c4cc(F)c5nc(C)n(C(C)C)c5c4)n3)nc2)CC1 [Abemaciclib] | 0.975 ± 0.016 | 0.9649 ± 0.0077 | 0.988 ± 0.02 | 0.961 ± 0.027 | 0.908 ± 0.047 | 0.771 ± 0.038 | 0.638 ± 0.014 | 0.544 ± 0.015 | 0.526 ± 0.074 | 0.447 ± 0.057 | 0.292 ± 0.023 | – | – | – | – | – | – | – | – | – | – | –
COc1c(OCCCN2CCOCC2)ccc2c1N=C(NC(=O)c1cnc(N)nc1)N1CCN=C21 [Copanlisib] | 0.977 ± 0.031 | 0.932 ± 0.023 | 0.947 ± 0.056 | 0.638 ± 0.087 | 0.571 ± 0.05 | 0.494 ± 0.023 | 0.344 ± 0.013 | 0.218 ± 0.0085 | 0.0703 ± 0.0047 | 0.007 ± 0.00036 | 0.0101 ± 0.0011 | – | – | – | – | – | – | – | – | – | – | –
Cc1nc(-c2cn3c(n2)-c2ccc(-c4cnn(C(C)(C)C(N)=O)c4)cc2OCC3)n(C(C)C)n1 [Taselisib] | 0.992 ± 0.028 | 0.983 ± 0.033 | 0.962 ± 0.026 | 0.949 ± 0.019 | 0.851 ± 0.044 | 0.694 ± 0.01 | 0.556 ± 0.0063 | 0.472 ± 0.0073 | 0.426 ± 0.016 | 0.347 ± 0.0097 | 0.224 ± 0.0038 | – | – | – | – | – | – | – | – | – | – | –
O=C(Cc1ccc(-c2ccc(OCCN3CCOCC3)cc2)cn1)NCc1ccccc1 [KX2-391] | 0.984 ± 0.025 | 1.002 ± 0.0063 | 1.01 ± 0.029 | 0.996 ± 0.017 | 0.973 ± 0.022 | 0.674 ± 0.021 | 0.0817 ± 0.0038 | 0.0547 ± 0.0048 | 0.0489 ± 0.0023 | 0.0417 ± 0.0023 | 0.0395 ± 0.0014 | – | – | – | – | – | – | – | – | – | – | –
C[C@@H]1COCCN1c1cc(-c2ccnn2C)c2ccnc(-c3ccn[nH]3)c2n1 | 0.987 ± 0.036 | 1.02 ± 0.044 | 1.04 ± 0.047 | 1.02 ± 0.04 | 1.01 ± 0.034 | 0.957 ± 0.0036 | 0.686 ± 0.026 | 0.279 ± 0.015 | 0.113 ± 0.096 | 0.155 ± 0.019 | 0.156 ± 0.0075 | – | – | – | – | – | – | – | – | – | – | –
Cc1cnc(Nc2ccc(OCCN3CCCC3)cc2)nc1Nc1cccc(S(=O)(=O)NC(C)(C)C)c1 [Fedratinib] | 1.01 ± 0.013 | 1 ± 0.036 | 1.02 ± 0.032 | 1.01 ± 0.027 | 0.98 ± 0.034 | 0.972 ± 0.024 | 0.904 ± 0.026 | 0.7114 ± 0.0066 | 0.145 ± 0.0063 | 0.00883 ± 0.0011 | 0.00587 ± 0.0018 | – | – | – | – | – | – | – | – | – | – | –
